Results on 99 compounds are retold here after ChEMBL document CHEMBL3507680, “University of Dundee, Gates Library screen for HepG2 cell viability”.

The data set can be described thus: Human HepG2 cell viability assay in 384 well format. Format: toxicity, cell-based. Also noted: dose 125 nL, time 70.5 hour; cytotoxicity at 70.5 h: concentration not given beside the values. As to conditions: HepG2 cells, read-out: Inhibition.
Turning to `CCn1nc(C)c2ncnc(N(C)Cc3ccco3)c21`, the cytotoxicity at 70.5 h is -1.38%.

As for `Cc1ccc(C(=O)NCCNC(=O)N(C)C(C)c2ccccn2)cc1` (centres undefined), the cytotoxicity at 70.5 h is -2.96%.

As for `O=C(NCCn1cccn1)c1nnc2ccccc2n1`, the cytotoxicity at 70.5 h turned out to be 19.4%.

On to `CC(C)CN1C(=O)C2(CCCC2)NC1c1cccnc1` (centres undefined), for which the cytotoxicity at 70.5 h was determined as 17.9%.

Turning to `COc1cccc(C2C3=C(COC3=O)Nc3[nH]nc(C)c32)c1OC` (centres undefined), the cytotoxicity at 70.5 h was -3.26%.

Consider `O=C(Nc1cnn(CC(=O)N2CCCCO2)c1)c1ccsc1`, for which the cytotoxicity at 70.5 h is -2.35%.

As to `Cc1ccsc1C(=O)N1CC(C(=O)N2CCCC2)C2(CCOCC2)C1` (centres undefined), the cytotoxicity at 70.5 h came to 0.96%.

As for `COc1cc2c(cc1CNCc1cccnc1-n1cccn1)OC(C)C2` (centres undefined), the cytotoxicity at 70.5 h was determined as 16.8%.

Turning to `O=C(c1ccc2[nH]ccc2c1)N1Cc2nc(CN3CCCC3)oc2C1`, the cytotoxicity at 70.5 h is -5.17%.

On to `CN1CCN2C(=O)N(C3CCCCC3)C[C@H]2C1`, for which the cytotoxicity at 70.5 h is -5.56%.

On to `CN(C)c1ccc(C(CNS(=O)(=O)c2cccs2)N2CCCC2)cc1` (centres undefined), for which the cytotoxicity at 70.5 h is -2.5%.

As for `O=C1CC(c2ccccc2)C2(CCN(C(=O)c3ccncc3F)CC2)N1` (centres undefined), the cytotoxicity at 70.5 h is -5.44%.

With `CCCN(CC1COc2ccccc2O1)C(=O)C1=NN(C)C(=O)CC1` (centres undefined), the cytotoxicity at 70.5 h is -9.94%.

`Cc1cccc(C)c1Nc1noc2c1CN(C(=O)c1ccn(C)n1)CC2`: the cytotoxicity at 70.5 h amounted to 46.4%.

Regarding `Cc1nc(CN2CCCCC2Cn2cccn2)nc2ccccc12` (centres undefined), the cytotoxicity at 70.5 h was -5.42%.

For the compound `CC(c1nncn1C)n1cc(-c2cc(CN3CCCC3)cs2)nn1` (centres undefined), the cytotoxicity at 70.5 h was 15.8%.

Regarding `CS(=O)(=O)N[C@@H]1CN(Cc2ccc3ncccc3c2)C[C@H]1O`, the cytotoxicity at 70.5 h is -5.91%.

Turning to `CN(C)[C@@H]1CN(C(=O)c2cc3ccc(F)cc3[nH]2)C[C@H]1O`, the cytotoxicity at 70.5 h was -2.24%.

Turning to `c1cnnc(N[C@@H]2CC[C@@H]3CN(Cc4ccc5cc[nH]c5c4)C[C@@H]32)c1`, the cytotoxicity at 70.5 h is -9.52%.

Consider `O=C(CC1CC1)N1CCC2(CCCN(CCOc3ccccc3)C2)C1` (centres undefined), for which the cytotoxicity at 70.5 h was -11.8%.

With `CN(Cc1ccc(C#N)cc1)C(=O)c1ccn(C)c(=O)c1`, the cytotoxicity at 70.5 h was -9.77%.

`CN(Cc1ccccc1)CC1CC2(CO1)CN(Cc1nccs1)C2` (centres undefined): the cytotoxicity at 70.5 h is -6.93%.

With `Cc1noc(C)c1-c1cncc(C2CCCN2Cc2ncc[nH]2)n1` (centres undefined), the cytotoxicity at 70.5 h amounted to 16.2%.

As to `CC(C)c1ccc(OCCNC(=O)CN2CCN(C)CC2C)cc1` (centres undefined), the cytotoxicity at 70.5 h came to 1.16%.

`CN1CCN(C(=O)c2csnn2)c2ccccc21`: the cytotoxicity at 70.5 h is 20.8%.

Take `CN(Cc1cccnc1)C1CC2(CCN(C(=O)c3ccnnc3)CC2)C1`: the cytotoxicity at 70.5 h was -13.1%.

With `Cc1ncsc1CN1CCOC(C)(C(=O)N(C)C)C1` (centres undefined), the cytotoxicity at 70.5 h came to 20%.

Consider `CC(C)C(Sc1nccn1C1CC1)C(=O)NCc1cccnc1` (centres undefined), for which the cytotoxicity at 70.5 h is 16%.

With `O=C(c1cc2cc(F)ccc2[nH]1)N1CCCCC1Cn1cccn1` (centres undefined), the cytotoxicity at 70.5 h is -0.801%.

In the case of `Cc1ncc(CN(C)CC(O)c2ccc(OC(F)(F)F)cc2)s1` (centres undefined), the cytotoxicity at 70.5 h is -3.36%.

`CCn1c(Nc2ccccc2OC)nc2c(C)nn(C)c2c1=O`: the cytotoxicity at 70.5 h was found to be 14%.

Take `c1cnn(CC2CCCCN2Cc2nc(-c3ccsc3)no2)c1` (centres undefined): the cytotoxicity at 70.5 h was -4.27%.

Take `CNC(=O)C1Cn2ccnc2C2(CCN(c3ccc(C)nn3)CC2)O1` (centres undefined): the cytotoxicity at 70.5 h is -0.593%.

As for `CCOc1ccc(CNCCCn2ccnc2)cc1Br`, the cytotoxicity at 70.5 h was 6.06%.

For the compound `CCOCC1CN(c2ncccn2)Cc2cnn(CC3CCOCC3)c21` (centres undefined), the cytotoxicity at 70.5 h came out at 9.85%.

Regarding `Cc1ccc(-c2nc(CNC3CCc4ncnn4C3)co2)c(C)c1` (centres undefined), the cytotoxicity at 70.5 h was determined as 1.75%.

In the case of `Cc1nn(C)c(Cl)c1C1CCCN1C(=O)c1cc[nH]n1` (centres undefined), the cytotoxicity at 70.5 h is -13%.

For `Cc1cc(=O)n2nc(Oc3cc(Cl)cc(Cl)c3)sc2n1`, the cytotoxicity at 70.5 h is -19.3%.

Regarding `Cc1noc(CNC2CCCN(Cc3noc(C4CC4)n3)C2)n1` (centres undefined), the cytotoxicity at 70.5 h was -2.29%.

Turning to `COCCCNC(=O)CCn1ncc2c(Cl)cccc21`, the cytotoxicity at 70.5 h was -7.64%.

Turning to `CNC(=O)C1CCN(C(=O)NCc2ccc(-c3ccn[nH]3)cc2)CC1`, the cytotoxicity at 70.5 h was -3.31%.

As to `CNC(=O)[C@@H]1[C@H]2CNCCN2C[C@H]1c1ccccc1`, the cytotoxicity at 70.5 h is -6.11%.

Turning to `CN(C)c1ccccc1C(=O)N1C[C@@H](CN2CCCCC2)[C@@H](CO)C1`, the cytotoxicity at 70.5 h was -3.58%.

Take `Cc1nc(C2CCN(C(=O)COC(C)C)CC2)cc(N2CCOCC2)n1`: the cytotoxicity at 70.5 h was -8.64%.

Turning to `CC(Cn1cccn1)NCc1csc(COc2ccccc2)n1` (centres undefined), the cytotoxicity at 70.5 h was -2.25%.

Consider `CCc1nc(C)sc1CN1CC[C@](O)(CC)[C@H](O)C1`, for which the cytotoxicity at 70.5 h was -6.34%.

Turning to `CC(=O)NCC(=O)N1Cc2nccn2CC(COc2cccnc2)C1` (centres undefined), the cytotoxicity at 70.5 h was -10.5%.

As to `CCN(Cc1cccc(F)c1)S(=O)(=O)N1CCOCC1`, the cytotoxicity at 70.5 h was 0.239%.

Turning to `CCSc1ncc(-c2cc(C3CC3)nc(N)c2C#N)cn1`, the cytotoxicity at 70.5 h was -4.52%.

As for `Cc1cc(CNC(=O)Nc2cccc(COCCOC(C)C)c2)no1`, the cytotoxicity at 70.5 h was -0.772%.

Regarding `O=C(CCCc1ccccn1)NCC(O)c1c(F)cccc1F` (centres undefined), the cytotoxicity at 70.5 h is -1.43%.

As for `CC(C)CS(=O)(=O)CCNc1ncccn1`, the cytotoxicity at 70.5 h is -4.65%.

`CCc1c(C)sc2c1c(N)nc(=O)n2CCCN(C)C`: the cytotoxicity at 70.5 h amounted to 5.31%.

For the compound `Cc1oncc1C(=O)N1C[C@H]2CCCC(N(C)Cc3cccs3)[C@H]2C1` (some centres undefined), the cytotoxicity at 70.5 h was -8.63%.

For the compound `COCCN1C[C@@H]2[C@@H](OC)CCN(C(=O)Cc3ccccc3)[C@@H]2C1`, the cytotoxicity at 70.5 h is -1.17%.

As for `CCOCC(=O)Nc1nccn1Cc1ccccc1Cl`, the cytotoxicity at 70.5 h came to 13.6%.

As for `CN1CCCC1c1nccnc1-c1ccc(C(=O)O)cc1` (centres undefined), the cytotoxicity at 70.5 h came out at 11%.

In the case of `Cc1cncnc1C1CCN(C(=O)CN(C)C)CC1`, the cytotoxicity at 70.5 h is -8.84%.

Regarding `CC(=O)N1[C@H](CN(C)C)C[C@@H]2CN(C(=O)c3cnc(C)cn3)CC[C@@H]21`, the cytotoxicity at 70.5 h was -5.19%.

Consider `Cc1ccc(CN2CCc3ncnc(-c4cccnc4)c3CC2)o1`, for which the cytotoxicity at 70.5 h was -5.88%.

On to `Cc1cnn(CC2CN(c3cnc4ccccc4n3)CCO2)c1` (centres undefined), for which the cytotoxicity at 70.5 h is 48.4%.

As to `CN(C)CC1CN(Cc2coc(-c3ccc(Cl)cc3)n2)CCO1` (centres undefined), the cytotoxicity at 70.5 h turned out to be 12.9%.

As to `CC(O)c1cccc(Nc2nc(NCCO)c3ccccc3n2)c1` (centres undefined), the cytotoxicity at 70.5 h was -5.65%.

Turning to `O=C(C(c1ccccc1)S(=O)(=O)c1ccccc1)N1CCCCC1` (centres undefined), the cytotoxicity at 70.5 h was found to be 3.14%.

Regarding `Cc1nc(O)cc(CN2C[C@H](NC(=O)C3CCC3)[C@@H](C3CC3)C2)n1`, the cytotoxicity at 70.5 h was -3.55%.

`COc1cccc(CCC2CCCN(C(=O)c3ccccn3)C2)c1` (centres undefined): the cytotoxicity at 70.5 h was determined as 17.8%.

Consider `CC(=O)N1CCC(NC(=O)c2cc(S(N)(=O)=O)ccc2C)CC1`, for which the cytotoxicity at 70.5 h is -3.13%.

As for `Clc1ccc(C2(NCc3noc(C4CC4)n3)CCC2)cc1`, the cytotoxicity at 70.5 h was -5.74%.

For `CN1CCN(c2ccc(NCc3ccsc3)cn2)CC1`, the cytotoxicity at 70.5 h is -8.79%.

Turning to `COCC(=O)N1CCC2(CC1)CN(c1cncnc1)C(=O)CO2`, the cytotoxicity at 70.5 h is -12%.

Take `COc1ccc(C2(C(=O)NCc3c(C)ncc4c3CCNC4)CC2)cc1`: the cytotoxicity at 70.5 h is -5.87%.

Consider `CNC(=O)C1CCCN1c1nc(C)c2ccccc2n1` (centres undefined), for which the cytotoxicity at 70.5 h is -16.3%.

In the case of `Cc1cc(C)cc(CN2C[C@@H]3OCCN(CC(=O)N(C)C)[C@@H]3C2)c1`, the cytotoxicity at 70.5 h is -0.77%.

Take `CC(C)N(CCNCc1ccc(C#N)cc1)C1CC1`: the cytotoxicity at 70.5 h is 17.7%.

In the case of `CN1CC2(CCN(CCCOCc3ccccc3)CC2)OC1=O`, the cytotoxicity at 70.5 h was -9.74%.

`COC(=O)CNC(=O)c1c(-n2cnnn2)sc2c1CCCC2`: the cytotoxicity at 70.5 h is -14.5%.

Regarding `Cc1noc(C(C)N2CCN(c3ncnc4sccc34)CC2)n1` (centres undefined), the cytotoxicity at 70.5 h was -7.54%.

Regarding `CCOC(=O)N1CCN(C(=O)Cc2c(C)nc(C)[nH]c2=O)CC1`, the cytotoxicity at 70.5 h amounted to 13.6%.

`CN(C)C(=O)NCc1cc2n(n1)CCCN(C[C@H]1[C@@H]3CNC[C@@H]31)C2`: the cytotoxicity at 70.5 h was -0.846%.

`O=C(N[C@H]1CN[C@H]2CCCO[C@H]21)c1cscn1`: the cytotoxicity at 70.5 h is -4.74%.

For the compound `CSCc1ccc(N2CCC(C(O)CC(C)C)CC2)nc1` (centres undefined), the cytotoxicity at 70.5 h turned out to be 6.44%.

Take `CCOC(=O)c1ccccc1NC(=O)CN(C)Cc1ccccc1Cl`: the cytotoxicity at 70.5 h was determined as 3.31%.

As for `Cc1cc(C)n(-c2ccc(N3CCC4(CC3)OCC(C)O4)nc2)n1` (centres undefined), the cytotoxicity at 70.5 h was -8.82%.

With `CCc1ccc(S(=O)(=O)N2CCCC3(CCCN3S(C)(=O)=O)C2)cc1` (centres undefined), the cytotoxicity at 70.5 h amounted to 22.3%.

For the compound `CC(C)c1nc2c(n1C)CCN(Cc1cccc(OCC(N)=O)c1)C2`, the cytotoxicity at 70.5 h is 0.112%.

As to `O=C(O)[C@@]12CN(c3cnccn3)C[C@@H]1CN(C1CCOCC1)C2`, the cytotoxicity at 70.5 h is -4.6%.

`CC(C)(C)n1c(NC(=O)CNC(=O)NC2CC2)nc2ccccc21`: the cytotoxicity at 70.5 h is 1.24%.

For the compound `CC(C)c1noc(CCC(=O)NCC2CC2)n1`, the cytotoxicity at 70.5 h is 23.5%.

Turning to `Fc1ccc(CNCCn2cccn2)c(F)c1`, the cytotoxicity at 70.5 h was determined as 21.2%.

In the case of `COC1CCN(S(=O)(=O)N2CCCC(c3cccc(C(=O)O)c3)C2)CC1` (centres undefined), the cytotoxicity at 70.5 h was -9.91%.

For the compound `Cc1ccn(-c2ccccc2NCc2cscn2)n1`, the cytotoxicity at 70.5 h was found to be 10.6%.

In the case of `Cc1ccc(C2CSCCN2C(=O)c2ccc(C(N)=O)cc2)o1` (centres undefined), the cytotoxicity at 70.5 h was -9.63%.

Take `COc1ccccc1CNC(=O)N1CCCC(c2nncn2C)C1` (centres undefined): the cytotoxicity at 70.5 h was -2.85%.

On to `OC1CCN(CCCNc2nccc(C3CCCC3)n2)CC1`, for which the cytotoxicity at 70.5 h is -2.73%.

Turning to `Cc1csc(C2CCCCN2C(=O)CN(C)Cc2ccccc2)n1` (centres undefined), the cytotoxicity at 70.5 h was -8.36%.

Take `N#Cc1cccc(CN2CC3(CCCCN3c3cccnc3)CC2=O)c1` (centres undefined): the cytotoxicity at 70.5 h is -1.1%.

As to `CN(C)C(=O)CN1CCCC1c1nccnc1Nc1ccccn1` (centres undefined), the cytotoxicity at 70.5 h was -8.51%.

With `CN1CCc2c(C#N)c(NCCc3ccccc3)n3cnnc3c2C1`, the cytotoxicity at 70.5 h was -12.4%.

`CCn1cc(NC(=O)CN2CCC(Oc3ccccc3C)CC2)c(C)n1`: the cytotoxicity at 70.5 h was -2.26%.
